Literature values in patent US20220193200A1, “TANNIC ACID/FE (III) NANOPARTICLES AND METHODS OF DRUG DELIVERY” (The Johns Hopkins University, priority 2019, published 2022).

- pKa: around 6
SMILES: O=C(OC[C@H]1O[C@@H](OC(=O)c2cc(O)c(O)c(OC(=O)c3cc(O)c(O)c(O)c3)c2)[C@H](OC(=O)c2cc(O)c(O)c(OC(=O)c3cc(O)c(O)c(O)c3)c2)[C@@H](OC(=O)c2cc(O)c(O)c(OC(=O)c3cc(O)c(O)c(O)c3)c2)[C@@H]1OC(=O)c1cc(O)c(O)c(OC(=O)c2cc(O)c(O)c(O)c2)c1)c1cc(O)c(O)c(OC(=O)c2cc(O)c(O)c(O)c2)c1 [tannic acid, Tannic acid]
